Data taken from patent US6849633B2, “Pyrazole derivative, production process thereof, and pest control agent containing the same as active ingredient” (Nihon Nohyaku Co., Ltd., priority 1999, dated 2005).

Experiments:
Assay type in all cases: in vivo
[1] = system: larvae of brown rice planthopper (Nilaparvata lugens); assay: Insecticidal effect on larvae of brown rice planthopper (spray, Test Example 1); details: 500 ppm, emulsion sprayed, 4th instar larvae, 25° C., after 5 days; agonizing insect counted as 1/2 dead
Description: (§1) Insecticidal Effect on Larvae of Brown Rice Planthopper (Nilaparvata lugens)
A rice seedling was planted in a glass cylinder (inner diameter: 3 cm×length: 17 cm), and five 4th instar larvae of brown rice planthopper were set free therein. An agricultural and horticultural insecticide of the invention was prepared in accordance with Formulation Example 3 and diluted with water, and 0.5 ml of the resulting emulsion was sprayed into the cylinder by means of a spraying tower (manufactured by Mizuho Rika) (duplicates at a concentration). The cylinder was kept in a constant temperature room at 25° C., and the mortality and agony of the larvae were examined after 5 days from the treatment to obtain a death rate (%) taking an agonizing insect as a ½ dead insect. The results obtained are shown in Table 2 (the compound numbers in Table 2 correspond to the numbers in Table 1).

[2] = system: larvae of diamond back moth (Plutella xylostella); assay: Insecticidal effect on larvae of diamond back moth (leaf disc, Test Example 2); details: 500 ppm, cabbage leaf disc soaked 1 minute, 3-instar larvae, 25° C., after 4 days
Description: Insecticidal Effect on Larvae of Diamond Back Moth (Plutella xylostella)
(§2) A disc (6 cm in diameter) cut out of a cabbage leaf was soaked for 1 minute in an aqueous suspension of the agricultural and horticultural insecticide of the invention prepared in accordance with Formulation Example 1, air-dried, and placed in a plastic cup (inner diameter: 7 cm). Five 3-instar larvae of Plutella xylostella were set free in the cup (duplicates at a concentration). The cup was kept in a constant temperature room at 25° C., and the death and agony of the larvae were examined after 4 days from the treatment to obtain a death rate (%) taking an agonizing insect as a ½ dead insect. The results obtained are shown in Table 3 (the compound numbers in the Table below correspond to the numbers in Table 1).

[3] = system: larvae of common cutworm (Spodoptera litura); assay: Insecticidal effect on larvae of common cutworm (leaf disc, Test Example 3); details: 500 ppm, cabbage leaf disc soaked 1 minute, 3-instar larvae, 25° C., after 5 days
Description: Insecticidal Effect on Larvae of Common Cutworm (Spodoptera litura)
as §2, with “suspension of an agricultural and” for “suspension of the agricultural and”, “larvae of Spodoptera litura were set” for “larvae of Plutella xylostella were set”, “examined after 5 days from” for “examined after 4 days from”, “in Table 4 (the compound” for “in Table 3 (the compound”

[4] = system: imagoes of adzuki bean weevil (Callosobruchus chinensis); assay: Insecticidal effect on imagoes of adzuki bean weevil (spray, Test Example 4); details: 500 ppm, emulsion sprayed, 25° C., after 4 days
Description: Insecticidal Effect on Imagoes of Adzuki Bean Weevil (Callosobruchus chinensis)
Two adzuki beans were put in a glass cylinder (inner diameter: 3 cm×length: 15 cm), and 10 imagoes of Callosobruchus chinensis were set free therein. An agricultural and horticultural insecticide of the invention was prepared in accordance with Formulation Example 3 and diluted with water, and 0.3 ml of the resulting emulsion was sprayed in the glass cylinder by means of a spray tower (manufactured by Mizuho Rika) (duplicates at a concentration). The cylinder was kept in a constant temperature room at 25° C., and the mortality and agony of the larvae were examined after 4 days from the treatment to obtain a death rate (%) taking an agonizing insect as a ½ dead insect. The results obtained are shown in Table 5 (the compound numbers in the Table correspond to the numbers in Table 1).

[5] = system: larvae of green peach aphid (Myzus persicae); assay: Insecticidal effect on larvae of green peach aphid (leaf dip, Test Example 5); details: 500 ppm, leaves dipped about 5 seconds, 25° C., 4th day after treatment
Description: Insecticidal Effect on Larvae of Green Peach Aphid (Myzus persicae)
Water was put in a screw bottle (volume: 10 ml), and a leafstalk of Japanese radish was placed therein and inoculated with 5 to 6 imagoes of Myzus persicae per leave. After the inoculation, the bottle was put in a glass cylinder (diameter: […]; height: 15 cm) with a mesh cover, and the insects were let to proliferate in a constant temperature room kept at 25° C. for 3 days. The imagoes on the leaves were removed, and the leaves were dipped in an aqueous dilusion of an agricultural and horticultural insecticide prepared of the invention in accordance with Formulation Example 3 for about 5 seconds and then returned into the glass cylinder (duplicates at a concentration). The cylinder was kept in the constant temperature room at 25° C., and the number of the insects on the leaves was counted on the 4th day after the treatment to obtain a death rate (%). The results obtained are shown in Table 6 (the compound numbers in the Table correspond to the numbers in Table 1).

[6] = system: larvae of brown rice planthopper (Nilaparvata lugens); assay: Insecticidal effect on larvae of brown rice planthopper, rice roots in agent solution (systemic, Test Example 6); details: for Death Rate (%) at Each Concentration of Active Ingrediet: 4th day; for insecticidal activity through systemic property (in words): summary of root-uptake test against brown rice planthopper
Description: as §1
Roots of young rice seedlings (height: about 10 cm) planted in a plastic cup were washed with water and soil was washed away so as not to damage the fine roots. The stem was pinched by a urethane tip (diameter: 3 cm, height: 2 cm) having a cut line and the roots were inserted into an Erlenmeyer flask to which 50 ml of an agent solution (an aqueous diluted solution of agricultural and horticultural insecticide of the invention prepared in accordance with Formulation Example 1) was placed beforehand (2 to 3 young rice seedlings/flask). The urethane tip was wedged into the mouse of the flask to fix the rice seedlings. A glass tube (diameter: 3 cm, height: 5 cm) was placed thereon, wedged into the urethane tip, and fixed with a tape. The flask in such state was kept in a constant temperature room at 25° C. for 3 days. Five larvae of brown rice planthopper were placed in the glass tube and then the tube was capped with a urethane tip, followed by keeping in the constant temperature room at 25° C. (duplicates at a concentration). The mortality and agony of the larvae were examined on 4th day after the treatment to obtain a death rate (%) taking an agonizing insect as a ½ dead insect. This test was carried out on three agent solutions different in the concentration of the active ingredient. The results are shown in Table 7 (the compound numbers in the table correspond to the numbers in Table 1).
As comparative compounds I to V, each compound having a structure shown below (Compound I described in Japanese Patent Laid-Open No. 316771/1988, Compounds II and III described in Examples of WO9845274, and Compounds IV and V included in the claim of WO9845274 but not included in the claim of the present application) was similarly subjected to the test. [drawing 36]
Brown rice planthopper (Nilaparvata lugens) is a highly problematic pest insect species which is harmful as described in Test Example 1, but a sufficient effect can not be attained by the application method of spraying an agent to stems and leafs, provided that the detection is delayed or that an enough amount of the agent is not spread to the roots.
Since this insect species has a characteristic of making its habitat around the roots of rice plant or the like and harming the plant through sucking fluid, more efficient method of controlling the insect may be a method of treating the surface of soil with an agent (granule treatment) before the outbreak of the species occurs widely. However, in order to attain a high controlling effect, a systemic property (a penetrating and migrating property) into a plant body is required as the nature of the agent.

[7] = system: Oryzias latipes; assay: Test on toxicity to fish using Oryzias latipes (Test Example 7); details: death rate, 0.5 ppm aqueous solution, adult Oryzias latipes, after 48 hours
Description: Test on Toxicity to Fish Using Oryzias latipes
This test example is one example for examining safety of agricultural and horticultural insecticides to the environment.
Ten mg of each compound was dissolved in 1 ml of dimethyl sulfoxide and a 0.05 ml portion thereof was added to a glass beaker containing 1 liter of distilled water to obtain a 0.5 ppm aqueous solution. Into the aqueous solution was put five fishes of Oryzias latipes (adult, average weight: about 360 mg) and the mortality was examined after 48 hours to calculate a death rate (%) (5 fishes per 1 lot/beaker, single run). The results are shown in Table 8 (the compound numbers in the table correspond to the numbers in Table 1).
Similar to Test Example 6, Compound I described in Japanese Patent Laid-Open No. 316771/1988, Compounds II and III described in Examples of WO9845274, and Compounds IV and V included in the claim of WO9845274 but not included in the claim of the present application were subjected to the test, as comparative compounds.

[8] = system: cat flea; assay: Insecticidal effect on cat flea (treated filter, Test Example 8); details: 0.7 mg/filter; mortality examined on 1st day and 2nd day after treatment
Excerpt: Insecticidal Effect on Cat Flea
After drying, the filter was placed on the bottom of a cylinder (diameter: 10 cm×height: 30 cm). Ten fleas were set free therein and the mortality was examined on 1st day and 2nd day after the treatment to calculate a death rate (%) based on the results. The results are shown in Table 9 (the compound numbers in the table correspond to the numbers in Table 1).

[9] = 0.2 ppm agent solution at rice roots
[10] = 0.8 ppm agent solution at rice roots
[11] = 3.1 ppm agent solution at rice roots

Compound	Death Rate (%) [1] [%]	Death Rate (%) [2] [%]	Death Rate (%) [3] [%]	Death Rate (%) [4] [%]	Death Rate (%) [5] [%]	Death Rate (%) at Each Concentration of Active Ingrediet [6, 9] [%]	Death Rate (%) at Each Concentration of Active Ingrediet [6, 10] [%]	Death Rate (%) at Each Concentration of Active Ingrediet [6, 11] [%]	Toxicity to fish (%) [7] [%]	Death Rate (%) [8] [%]	insecticidal activity through systemic property (in words) [6]
1-(2,6-dichloro-4-trifluoromethylphenyl)-4-trifluoromethylsulfinyl-5-(1-oxy-pyridin-3-ylmethylamino)pyrazole-3-carbonitrile [Compound 14]	100	100	100	100	100	100	100	100	0		
C[S+]([O-])c1c(C#N)nn(-c2c(Cl)cc(C(F)(F)F)cc2Cl)c1NCc1cnccn1 (stereo not drawn) [Compound 1, 1-(2,6-dichloro-4-trifluoromethylphenyl)-4-methylsulfinyl-5-(pyrazin-2-ylmethylamino)pyrazole-3-carbonitrile]	100	100		100	100	100	100	100	0		
N#Cc1nn(-c2c(Cl)cc(C(F)(F)F)cc2Cl)c(NCc2cnccn2)c1[S+]([O-])C(F)(F)F (stereo not drawn) [Compound 5, 1-(2,6-dichloro-4-trifluoromethylphenyl)-4-trifluoromethylsulfinyl-5-(pyrazin-2-ylmethylamino)pyrazole-3-carbonitrile]	100	100	100	100	100	100	100	100		100	
N#Cc1nn(-c2c(Cl)cc(C(F)(F)F)cc2Cl)c(NCc2cc[n+]([O-])cc2)c1SC(F)(F)F [III]						92	100	100	60		
N#Cc1nn(-c2c(Cl)cc(C(F)(F)F)cc2Cl)c(NCc2ccncc2)c1SC(F)(F)F [II]							20	50	80		obviously inferior effect
CSc1c(C#N)nn(-c2c(Cl)cc(C(F)(F)F)cc2Cl)c1NCc1cnccn1 [IV]						100	100	100	100		high systemic property
N#Cc1nn(-c2c(Cl)cc(C(F)(F)F)cc2Cl)c(N)c1[S+]([O-])C(F)(F)F (stereo not drawn) [I]						33	67	92	100		obviously inferior effect
N#Cc1nn(-c2c(Cl)cc(C(F)(F)F)cc2Cl)c(NCc2cnccn2)c1SC(F)(F)F [V]						55	80	95	100		
